Experimental data: US20130109581A1, “POSITIVELY CHARGED SPECIES AS BINDING REAGENTS IN THE SEPARATION OF PROTEIN AGGREGATES FROM MONOMERS” (priority 2009, published 2013)
“Also recorded” adds a separate entry of the source. Where two headings read alike, the source gives them in different places. Where a SMILES comes first, the peptide text is derived from it. [ ]: non-standard residue; d: D form. Ahx = NCCCCCC(=O)O

Experiments:
[1] = target: T1, normal CSF Aβ40 (Homo sapiens, UniProt P05067); assay: NMPA with detergent washing: background from CSF, Abeta40; assay type: binding; conditions: 1% detergent wash after PSR1 pulldown; FIG. 35
T1 construct: from tissue; host or cells: pooled cerebrospinal fluid (normal or AD)
Procedure: Second, two neutral detergents, polyethylene glycol sorbitan monolaurate (available as TWEEN 20 from Sigma-Aldrich, St. Louis, Mo.) and n-tetradecyl-N,N-dimethyl-3-ammonio-1-propanesulfonate (available as ZWITTERGENT 3-14 from EMI) Chemicals, Gibbstown, N.J.) were used to treat the globulomer-spiked CSF samples that had been contacted with PSR1 beads. For each assay, a mixture of 30 μl of PSR1 beads (coated at about 7-12 nmol PSR1 ligand/mg DYNAL beads, which were used in this example and in the following examples unless otherwise stated) and 70 μl of 1×TBSTT was immediately pipetted into each well on the pulldown plate. The liquid was removed on a magnetic separator. Fifty micro liters of 5×TBSTT was added to each well. The beads were suspended by briefly shaking at 750 rpm. Next […] of TBSTT or CSF sample without globulomer was added to each well. The pulldown plate was sealed and incubated at 37° C. for 1 hour with shaking at 500 rpm. After incubation, the beads were washed 8 times with TBST on the plate washer. After the plate wash, residual TBST buffer was removed from the beads on the magnetic separator. […]
(§1) A summary of the assay results and calculated signal/noise is shown below in Table 17.

[2] = target: T2, normal CSF Aβ42 (Homo sapiens, UniProt P05067); assay: NMPA with detergent washing: background from unspiked CSF, Abeta42; assay type: binding; conditions: for detection of normal CSF Aβ42 (background): 1% detergent wash after PSR1 pulldown, FIG. 35
T2 construct: reduced the detection of normal CSF Aβ42 to the background levels; from tissue; host or cells: pooled normal cerebrospinal fluid
Procedure: Second, two neutral detergents, polyethylene glycol sorbitan monolaurate (available as TWEEN 20 from Sigma-Aldrich, St. Louis, Mo.) and n-tetradecyl-N,N-dimethyl-3-ammonio-1-propanesulfonate (available as ZWITTERGENT 3-14 from EMI) Chemicals, Gibbstown, N.J.) were used to treat the globulomer-spiked CSF samples that had been contacted with PSR1 beads. For each assay, a mixture of 30 μl of PSR1 beads (coated at about 7-12 nmol PSR1 ligand/mg DYNAL beads, which were used in this example and in the following examples unless otherwise stated) and 70 μl of 1×TBSTT was immediately pipetted into each well on the pulldown plate. The liquid was removed on a magnetic separator. Fifty micro liters of 5×TBSTT was added to each well. The beads were suspended by briefly shaking at 750 rpm. Next […] of TBSTT or CSF sample without globulomer was added to each well. The pulldown plate was sealed and incubated at 37° C. for 1 hour with shaking at 500 rpm. After incubation, the beads were washed 8 times with TBST on the plate washer. After the plate wash, residual TBST buffer was removed from the beads on the magnetic separator. The beads were then incubated with 100 μl of either TBS, 1% Tween20 or 1% Zwittergent 3-14 for 30 minutes at room temperature at 750 rpm, (followed by an additional 8 washes with TBST on the plate washer. After removing residual TBST on the magnetic separator, 20 μl of denaturing solution, typically 0.1-0.15 N NaOH, was added to the beads. The plate was covered with an aluminum foil plate sealer and incubated at 80° C. for 30 minutes with shaking at 750 rpm. After incubation, the plate was cooled to room temperature and twenty micro liters of neutralizing solution, typically 0.12-0.18 M NaH2PO4+0.4% Tween20) was added into each well and the plate was incubated at room temperature for 5 minutes with shaking at 750 rpm. […] MSD Abeta Triplex Assay was preformed according to the manufacturer's instructions.
as §1

[3] = target: Abeta 42 globulomer (Homo sapiens, UniProt P05067); assay: NMPA with detergent washing after PSR1 pulldown: globulomer detection; assay type: binding
[4] = target: T3, Aβ42 Globulomer (Homo sapiens, UniProt P05067); assay: Misfolded Protein Assay, LoD and capture in CSF: globulomer; assay type: binding
T3 construct: beta amyloid (1-42) was monomerized with incubation in hexafluoroisopropanol
Procedure: (§2) The Ab42 aggregates were prepared as previously described: fibrils were prepared per Stine et al (JBC 2003, 278, p11612), globulomers were prepared per Barghorn et al (J Neurology 2005 95 p834), ADDLs were prepared per Lambert et al (PNAS 1998, 95 p6448), and ASPDs were prepared per Noguchi et al (JBC 2009 284 p32895). Normal CSF was pooled from clinically characterized non-demented patient CSF samples. AD CSF was pooled from clinically-characterized AD patient samples. Alzheimer's Disease Brain Homogenate (ADBH) was prepared by sonication of clinically diagnosed AD patient brain samples in 0.2M.sucrose (1:10 w/v).
(§3) For the capture assay (Misfolded Protein Assay), aliquots of the beads (30 ul) were added to wells of a 96 well plate, followed by 125 ul of sample in 80:20 CSF:TBSTT. The plate was sealed and incubated for 1 h at 37 C with shaking. The plate was washed with TBST and the residual buffer removed. A denaturing solution (0.1 N NaOH) was added to each well and the plate heated to 80 C. for 30 min with shaking. After cooling the plate to RT, a neutralizing buffer (0.12 M NaH2PO3-0.4% TW20,) was added and the plate shaken briefly at RT. The assay was analyzed using the triplex Mesoscale Discovery ELISA kit for Aβ. The Aβ in the samples eluted from the beads were detected per the manufacturer's protocol.
(§4) For the Limit of Detection (LoD) studies, serial dilutions of each aggregate were spiked into CSF and were assayed per the protocol described above. The LoD was defined as 2× over background levels.
(§5) This pattern minors the capture selectivity observed when these species are tested with 3 ul of PSR1 beads and 1 ng/mL of aggregate.

[5] = tested on: Alzheimer's Disease Brain Homogenate (ADBH) Aβ aggregates; assay: Misfolded Protein Assay, LoD in CSF: ADBH; assay type: binding, human; conditions: spiked into CSF; LoD = 2× over background
Procedure: as §2
as §3, with “protocol. […]” for “protocol.”

[6] = target: T4, Aβ42 ASPD (Homo sapiens, UniProt P05067); assay: Misfolded Protein Assay, LoD and capture in CSF: ASPD; assay type: binding
T4 construct: The Ab42 aggregates were prepared as previously described
Procedure: as §2, §3, §4, §5

[7] = target: Aβ42 ADDL (Homo sapiens, UniProt P05067); assay: Misfolded Protein Assay, LoD and capture in CSF: ADDL; assay type: binding
Procedure: as §2, §3, §4, §5

[8] = target: T5, Aβ40 aggregates in AD CSF (Homo sapiens, UniProt P05067); assay: Discrimination between AD and normal CSF; assay type: binding; conditions: FIG. 39
T5 construct: from tissue; host or cells: pooled cerebrospinal fluid (normal or AD)
Procedure: as §2, §3
For discriminating between AD and normal CSF, pooled normal CSF or pooled Alzheimer's Disease patient CSF, were assayed per the protocol described above.

[9] = target: T6, Aβ42 Fibrils (Homo sapiens, UniProt P05067); assay: Misfolded Protein Assay, LoD and capture in CSF: fibrils; assay type: binding
T6 construct: The Ab42 aggregates were prepared as previously described
Procedure: as §2, §3, §4, §5

[10] = 3 ul of beads and 1 ng/mL of aggregate
[11] = spiked into CSF, LoD = 2× over background
[12] = CSF, PSR1 beads treated with detergent post capture
[13] = pulldown CSF, PSR1 beads washed with 1% detergent

Abeta 42 globulomer, sequence (P05067 672-713 limits assumed): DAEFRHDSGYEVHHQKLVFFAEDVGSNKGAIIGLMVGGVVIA
T2 sequence (P05067 672-713 limits assumed): as above
T4 sequence (P05067 672-713 limits assumed): as above
Aβ42 ADDL, sequence (P05067 672-713 limits assumed): as above
T6 sequence (P05067 672-713 limits assumed): as above
T3 sequence (P05067 672-713 limits assumed): as above
T1 sequence (P05067 672-711 limits assumed): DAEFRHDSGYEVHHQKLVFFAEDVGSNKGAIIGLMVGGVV
T5 sequence (P05067 672-711 limits assumed): as above

Polyethylene glycol sorbitan monolaurate [TW20]
detection of normal CSF Aβ40 (background) [1]: reduced the detection of normal CSF Aβ40 significantly
detection of normal CSF Aβ42 (background) [2]: reduced the detection of normal CSF Aβ42 to the background levels observed when PSR1 is incubated with TBSTT buffer alone
LoD of globulomer (Cal) [3]: 2.52 pg/mL
LoD of globulomer, RLU (S/N = 2) [3]: 211 RLU
S/N at 25.3 pg/mL globulomer [3]: 11.0
signal/noise of globulomer detection [3]: improved the signal/noise of globulomer detection

CC(=O)NC(Cc1ccccc1)C(=O)NC(CCCCN)C(=O)NC(Cc1ccccc1)C(=O)NC(CCCCN)C(=O)NC(CCCCN)C(=O)NC(CCCCN)C(=O)NCCCCCC(=O)NCCCCCC(=O)NC(CS)C(N)=O (stereo not drawn) [Ac-FKFKKK, Ac-FKFKKK-Ahx-Ahx-Cys-NH2] (Ac-FKFKKK[Ahx][Ahx]C-NH2; configuration not given here)
capture of Globulomer [4, 10]: 3409
LoD [4, 11]: 75 to 120 pg/mL
LoD [5]: <10 pg/mL
capture of ASPD [6, 10]: 1321
LoD [6, 11]: 300 pg/mL
capture of ADDL [7, 10]: 1241
LoD [7, 11]: 300 pg/mL
Aβ40 signal in pooled AD CSF relative to normal pool [8]: higher Aβ40 signal in positive pooled AD CSF relative to unmatched normal pool; also recorded: largest change in signal
capture of Fibril [9, 10]: 4138
LoD [9, 11]: 100 pg/mL

n-Tetradecyl-N,N-dimethyl-3-ammonio-1-propanesulfonate [ZW3-14]
detection of normal CSF Aβ40 (background) [1]: reduced the detection of normal CSF Aβ40 significantly
detection of normal CSF Aβ42 (background) [2]: reduced the detection of normal CSF Aβ42 to the background levels observed when PSR1 is incubated with TBSTT buffer alone
Abeta 42 RLU, 0 ng/mL Abeta 42 globulomer, Average [2, 12]: 110.0 RLU
signal/noise of globulomer detection [3]: improved the signal/noise of globulomer detection; also recorded: improved the signal/noise ratio for Abeta 42 globulomer detection more significantly
S/N Abeta 42 globulomer-spiked/unspiked ([3]; 0.5 ng/mL vs 0 ng/mL globulomer): 7.7
S/N Abeta 42 globulomer-spiked/Abeta 40 ([3]; Abeta 42 RLU at 0.5 ng/mL over average Abeta 40 RLU): 2.2
Abeta 42 RLU, 0.5 ng/mL Abeta 42 globulomer, Average [3, 12]: 842.0 RLU
LoD of globulomer (Cal) [3, 13]: 2.33 pg/mL
LoD of globulomer, RLU (S/N = 2) [3, 13]: 199 RLU
S/N at 25.3 pg/mL globulomer [3, 13]: 10.3
